How the values were obtained:
Septoria tritici = Septoria tritici test / in vitro microtest (liquid medium, microtitre plates, optical density at 620 nm); assay type: cell-based; details: for EC50 (Mean): mean over the 14 strains; for EC50: 5 days of incubation
Protocol: In an in-vitro microtest, several compounds were tested against different strains of Septoria tritici.
The microtest was performed in liquid medium with 50% malt medium using microtitre plates.
The active compounds are applied as technical active substances dissolved in methanol and 8 concentrations were prepared. The resulting concentration range was 0; 0.0032; 0.016; 0.08; 0.4; 2; 10; and 50 µg a.i. /ml. A mycelium suspension of different strains of Septoria tritici was used for inoculation. After 5 days of incubation in darkness under shaking (10 Hrz) the optical density in each cavity was determined photometrically at 620 nm. […] Table 3: Septoria tritici test /in vitro

[1] = test system: leaf discs of grape plants; experiment: Leaf disc test: chlorophyll content (greening effect) by SPAD-502 chlorophyll meter; details: 1 ppm; after 3 days at room temperature (21°C); 5 replicates
Protocol: According to this invention the chlorophyll content is measured by means of the commercially available hand-held chlorophyll meter SPAD-502 (Konica Minolta).
In a lab experiment, leaf discs of grape plants were put in petri dishes containing solutions of different compounds. 5 replicates were used for each treatment. Afterwards, the petri dishes were incubated for max. 7 days at room temperature (21°C). After 3 days, the chlorophyll content of the leaf discs was measured by using a commercially available hand-held chlorophyll meter (SPAD-502, Konica Minolta). Table 2: Impact of 2-[6-(4-bromophenoxy)-2-(trifluoromethyl)-3-pyridyl]-1-(1,2,4-triazol-1-yl)propan-2-ol (I.02) on the chlorophyll content (greening effect) in leaf discs

winter wheat = experiment: Field trial in winter wheat: impact on yield, greening and canopy coverage under pathogen-free conditions; assay type: in vivo, winter wheat variety "Dekan"; details: 125 g a.i./ha; for Grain Yield (% of Control) / Grain Yield: sprayed threefold at BBCH 31, 39 and 69 as 100EC formulation; for Grain Yield (% of Control): control = 100EC blank formulation; for Grain Yield: harvest July 2017; for Greening (% of Control): measured visually at BBCH growth stage 65, untreated control plots = 100%; for Canopy Coverage: tractor-mounted RGB camera system, BBCH growth stage 37
Protocol: A field trial in winter wheat was conducted in the experimental station "Laacherhof" in Germany from autumn 2016 to summer 2017.
Seeds of the winter wheat variety "Dekan" were planted in October 2016. Fertilization, herbicide- and plant growth regulator applications were carried out according to the local agricultural practice. Additionally, a cover spray with the fungicidal composition "Pronto® Plus" was carried out at BBCH growth stage 51 in order to keep the field trial pathogen-free. The trial was conducted with 4 replicates and the replicates 2, 3 and 4 were randomized. The plot size was 8.8 m^2.
The compounds 2-[6-(4-chlorophenoxy)-2-(trifluoromethyl)-3-pyridyl]-1-(1,2,4-triazol-1-yl)propan-2-ol (I.01) and 2-[6-(4-bromophenoxy)-2-(trifluoromethyl)-3-pyridyl]-1-(1,2,4-triazol-1-yl)propan-2-ol (1.02) were sprayed threefold at BBCH growth stages 31, 39 and 69 with an use rate of 125 g a.i./ha (a.i. = active ingredient, i.e. the respective compound of formula (I)). Both compounds were applied as a 100EC formulation (100EC = emulsion concentrate comprising 100 g/L of the respective active ingredient).
The winter wheat was harvested in July 2017.
The greening effect was measured visually at BBCH growth stage 65. The greening of the untreated control plots corresponds to 100% and the plots of the other treatments were directly compared to the control plots (table 1).
The canopy coverage was measured by a tractor-mounted RGB camera system on May 11, 2017 at BBCH growth stage 37 (table 1). Table 1: Impact of different compounds on yield, greening and canopy coverage

CC(O)(Cn1cncn1)c1ccc(Oc2ccc(Br)cc2)nc1C(F)(F)F (stereo not shown) [Compound 1.02, 2-[6-(4-bromophenoxy)-2-(trifluoromethyl)-3-pyridyl]-1-(1,2,4-triazol-1-yl)propan-2-ol]
EC50 (Mean) (Septoria tritici): 0,0133 ppm
EC50 (Septoria tritici; strain 01/16): 0,0187 ppm
EC50 (Septoria tritici; strain 02/16): 0,0108 ppm
EC50 (Septoria tritici; strain 03/16): 0,0043 ppm
EC50 (Septoria tritici; strain 04/16): 0,0433 ppm
EC50 (Septoria tritici; strain 05/16): 0,0223 ppm
EC50 (Septoria tritici; strain 06/16): 0,0033 ppm
EC50 (Septoria tritici; strain 07/16): 0,0032 ppm
EC50 (Septoria tritici; strain 08/16): 0,0629 ppm
EC50 (Septoria tritici; strain 09/16): 0,0416 ppm
EC50 (Septoria tritici; strain 11/16): 0,0038 ppm
EC50 (Septoria tritici; strain 12/16): 0,0806 ppm
EC50 (Septoria tritici; strain 13/16): 0,0169 ppm
EC50 (Septoria tritici; strain 14/16): 0,0080 ppm
EC50 (Septoria tritici; strain 15/16): 0,0059 ppm
SPAD Reading [1]: 32
Grain Yield (% of Control) (winter wheat): 112 % of Control
Grain Yield (winter wheat): 77,8 dt/ha
Greening (% of Control) (winter wheat): 137 % of Control
Canopy Coverage (winter wheat): 58%

CC(O)(Cn1cncn1)c1ccc(Oc2ccc(Cl)cc2)nc1C(F)(F)F (stereo not shown) [Compound 1.01, 2-[6-(4-chlorophenoxy)-2-(trifluoromethyl)-3-pyridyl]-1-(1,2,4-triazol-1-yl)propan-2-ol]
EC50 (Mean) (Septoria tritici): 0,0203 ppm
EC50 (Septoria tritici; strain 01/16): 0,1348 ppm
EC50 (Septoria tritici; strain 02/16): 0,0248 ppm
EC50 (Septoria tritici; strain 03/16): 0,0032 ppm
EC50 (Septoria tritici; strain 04/16): 0,0355 ppm
EC50 (Septoria tritici; strain 05/16): 0,0503 ppm
EC50 (Septoria tritici; strain 06/16): 0,0039 ppm
EC50 (Septoria tritici; strain 07/16): 0,0032 ppm
EC50 (Septoria tritici; strain 08/16): 0,0641 ppm
EC50 (Septoria tritici; strain 09/16): 0,1002 ppm
EC50 (Septoria tritici; strain 11/16): 0,0034 ppm
EC50 (Septoria tritici; strain 12/16): 0,0715 ppm
EC50 (Septoria tritici; strain 13/16): 0,0055 ppm
EC50 (Septoria tritici; strain 14/16): 0,0147 ppm
EC50 (Septoria tritici; strain 15/16): 0,0663 ppm
Grain Yield (% of Control) (winter wheat): 108 % of Control
Grain Yield (winter wheat): 74,6 dt/ha
Greening (% of Control) (winter wheat): 108 % of Control
Canopy Coverage (winter wheat): 58%

CC(C)(C)C(O)(CCc1ccc(Cl)cc1)Cn1cncn1 (stereo not shown) [Tebuconazole, reference compound]
EC50 (Mean) (Septoria tritici): 7,4138 ppm
EC50 (Septoria tritici; strain 01/16): 8,1102 ppm
EC50 (Septoria tritici; strain 02/16): 14,4303 ppm
EC50 (Septoria tritici; strain 03/16): 13,2784 ppm
EC50 (Septoria tritici; strain 04/16): 50,0000 ppm
EC50 (Septoria tritici; strain 05/16): 8,5712 ppm
EC50 (Septoria tritici; strain 06/16): 10,6222 ppm
EC50 (Septoria tritici; strain 07/16): 5,4355 ppm
EC50 (Septoria tritici; strain 08/16): 4,2639 ppm
EC50 (Septoria tritici; strain 09/16): 27,1082 ppm
EC50 (Septoria tritici; strain 11/16): 0,6823 ppm
EC50 (Septoria tritici; strain 12/16): 2,1260 ppm
EC50 (Septoria tritici; strain 13/16): 28,6583 ppm
EC50 (Septoria tritici; strain 14/16): 3,4790 ppm
EC50 (Septoria tritici; strain 15/16): 2,3577 ppm
SPAD Reading [1]: 25
